# “Also recorded” adds a separate entry of the source. Where a name gives a salt, the structure may show the parent alone. Read-outs that look alike come from different tables or passages of the source.
# Key:
# [1] = cited from earlier work; for plasma half-life: after oral primaquine; for time to peak (maximum) plasma concentration: oral
# [2] = cited from earlier work
# P. vivax = conditions: in vivo; cited from earlier work
# P. falciparum = conditions: cited from earlier work
# HIV = assay type: cell-based; conditions: standardized extract containing 1-10 μg/ml quercetin
# Description: The in vitro effect of calcium channel blockers on HIV infection both in HIV adapted cell lines (HUT/H9) as well as acutely infected peripheral blood lymphocytes were studied.
# GSH production = conditions: cited from earlier work
smiles,measurement,setting,value
COc1cc(NC(C)CCCN)c2ncccc2c1 (centres unmarked) [Primaquine],plasma half-life,[1],3 to 8 h
same,peak serum concentration,[1]; oral primaquine,50 to 66 ng/mL
same,time to peak (maximum) plasma concentration,[1],1 to 2 h
COc1cc(NC(C)CCC(=O)O)c2ncccc2c1 (centres unmarked) [carboxyprimaquine],peak serum concentration,[1]; after 14 daily doses of primaquine,432 to 1240 ng/mL
same,plasma half-life,[1],22 to 30 h
same,plasma concentration relative to parent compound,[1]; in vivo,more than ten times greater
"O=C1NC(=O)C(c2ccccc2)(c2ccccc2)N1 [phenytoin, 5,5-diphenyl-2,4-imidazolidinedione]",solubility in water / aqueous mixtures,[2],poorly soluble in aqueous mixtures; also recorded: water insoluble
CCN(CC)CCCC(C)Nc1ccnc2cc(Cl)ccc12 (centres unmarked) [Chloroquine],therapeutically effective plasma concentration,P. vivax,~15 µg/L
same,apparent volume of distribution,[1]; in vivo,"about 13,000 L"
same,half-life (elimination / urinary excretion),[1]; in vivo,72 to 120 h
same,plasma protein binding,[1]; in vivo,50-65%
same,time to peak (maximum) plasma concentration,[1],about 3 hours
same,therapeutically effective plasma concentration,P. falciparum; sensitive P. falciparum,approximately 30 μg/L
"O=c1c(O)c(-c2ccc(O)c(O)c2)oc2cc(O)cc(O)c12 [quercetin, 2-(3,4-Dihydroxyphenyl)-3,5,7-trihydroxy-4H-1-benzopyran-4-one]",reduction of HIV activity,HIV,5-20%
same,absorption in the jejunum,[1]; in vivo,66%
same,increase of GSH production,GSH production,50%
C=C[C@H]1C[N@@]2CC[C@H]1C[C@H]2[C@H](O)c1ccnc2ccc(OC)cc12 [Quinine],mean plasma concentration effective to eliminate asexual parasites,P. vivax,over 5 μg/mL
same,cerebrospinal fluid concentration as share of plasma level,[1]; in vivo,about 7%
same,plasma concentration accompanied by adverse reactions of cinchonism,[1]; in vivo,over 7 μg/mL
same,red blood cell level as share of plasma level,[1]; in vivo,about 20%
same,share of drug metabolized in the liver,[1]; in vivo,Approximately 80%
same,time to peak (maximum) plasma concentration,[1],1 to 3 h
same,plasma level,"[1]; standard oral doses, normal or mild infection",about 7 μg/mL
"O=C1NC(=O)C(c2ccccc2)(c2ccccc2)N1 [Phenytoin sodium, monosodium salt of 5,5-diphenyl hydantoinate]",solubility in water / aqueous mixtures,[2],readily soluble in water; also recorded: highly water-soluble
OC(c1cc(C(F)(F)F)nc2c(C(F)(F)F)cccc12)C1CCCCN1 (centres unmarked) [Mefloquine],half-life (elimination / urinary excretion),[1]; in vivo,312 to 792 h
same,plasma level necessary for chemo-suppression,P. falciparum; in vivo,200 to 300 ng/mL

# Source: US7479498B2, “Treatments for viral infections” (priority 1999, dated 2009)
